Among the test systems are 786-0; A498; HCT-116; HT-29; Hs-578T; IGROV-1; LOX IMVI; NCI-H23; NCI-H522; NCI/ADR-RES; OVCAR-3; PC-3; RPMI-8226; SF-268; SF-295; SK-MEL-28; SN12C; UACC-62.
What all share (experiment): NCI anticancer screen, dose series, 48 h

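1) Cells in 96-well plates. 2) Compound, 48 h, 5 concentrations. 3) Linear interpolation between surrounding doses. 4) Unreached endpoint = highest concentration. GI50 = concentration required for 50% inhibition of growth.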 Active and inactive are the calls of the source. Rule as the data show it: active = GI50 up to about 1.1 µM and inactive = higher.

Turning to `NCc1nnn(Cc2ccccc2)c1N`, the GI50 in the experiment with 786-0, in the experiment with A498, in the experiment with HCT-116, with HT-29, in the experiment with Hs-578T and in the experiment with IGROV-1 was > 100 µM (inactive) each time. The GI50 in the experiment on LOX IMVI, in the experiment with NCI-H23, with NCI-H522, in the experiment with NCI/ADR-RES, in the experiment on OVCAR-3 and with PC-3 was > 100 µM (inactive) throughout. Further, the GI50 with RPMI-8226, in the experiment with SF-268, with SF-295, in the experiment on SK-MEL-28, in the experiment on SN12C and in the experiment on UACC-62 was > 100 µM (inactive) throughout.
Turning to `O=C(NNCc1ccco1)c1cc2ccccc2[nH]1`, the GI50 in the experiment with 786-0 is > 51.5 µM (inactive); in the experiment on A498, > 100 µM (inactive); in the experiment with HCT-116, > 86.1 µM (inactive); in the experiment on HT-29, > 86.9 µM (inactive); in the experiment with Hs-578T, 14.9 µM (inactive); with IGROV-1, 50.7 µM (inactive). For the same compound, the GI50 in the experiment on LOX IMVI was > 100 µM (inactive); in the experiment with NCI-H23, > 61.9 µM (inactive); in the experiment on NCI-H522, 34.3 µM (inactive); in the experiment with NCI/ADR-RES, > 52.4 µM (inactive); in the experiment on OVCAR-3 it was > 55.6 µM (inactive); in the experiment on PC-3, > 91 µM (inactive). In addition, the GI50 in the experiment on RPMI-8226 is > 100 µM (inactive); in the experiment with SF-268, 38.8 µM (inactive); with SF-295, 91.8 µM (inactive); in the experiment on SK-MEL-28, > 100 µM (inactive); in the experiment with SN12C, > 61 µM (inactive); in the experiment on UACC-62 it was > 100 µM (inactive).
Turning to `CC1(C)[C@@H]2CC[C@@]1(C)[C@H](O)[C@@H]2SCc1ccccc1`, the GI50 in the experiment on 786-0 was 17 µM (inactive); in the experiment with A498, < 0.01 µM (active); with HCT-116, 17.2 µM (inactive); in the experiment with HT-29 it was 14.7 µM (inactive); in the experiment on Hs-578T, 14.2 µM (inactive); in the experiment on IGROV-1 it was 18.7 µM (inactive). Moreover, the GI50 with LOX IMVI was 18.5 µM (inactive); with NCI-H23 it was 14.1 µM (inactive); in the experiment on NCI-H522, 15.2 µM (inactive); in the experiment with NCI/ADR-RES it was 15.8 µM (inactive); in the experiment with OVCAR-3, 17.1 µM (inactive); with PC-3, 20.8 µM (inactive). The GI50 was 27.5 µM (inactive) with RPMI-8226; 17.3 µM (inactive) in the experiment with SF-268; 18.1 µM (inactive) in the experiment on SF-295; 17.5 µM (inactive) in the experiment on SK-MEL-28; 17.8 µM (inactive) in the experiment with SN12C; 10.2 µM (inactive) in the experiment on UACC-62.
On to `COc1ccc2c(c1)C(N)=C(c1ccccc1)C2=O`, for which the GI50 was 80.4 µM (inactive) in the experiment with 786-0; > 100 µM (inactive) with A498; 58.3 µM (inactive) with HCT-116; > 100 µM (inactive) in the experiment on HT-29; 11.4 µM (inactive) in the experiment on Hs-578T; 63.5 µM (inactive) in the experiment on IGROV-1. Besides, the GI50 with LOX IMVI is > 100 µM (inactive); in the experiment on NCI-H23, 38.8 µM (inactive); in the experiment on NCI-H522, > 100 µM (inactive); in the experiment on NCI/ADR-RES, 36.6 µM (inactive); in the experiment with OVCAR-3 it was > 100 µM (inactive); in the experiment with PC-3, > 100 µM (inactive). The GI50 with RPMI-8226 is 96.4 µM (inactive); with SF-268 it was 27 µM (inactive); with SF-295, 97.1 µM (inactive); in the experiment on SK-MEL-28 it was > 100 µM (inactive); in the experiment with SN12C it was 99.3 µM (inactive); with UACC-62 it was > 100 µM (inactive).
In the case of `O=C1OC(c2ccccc2)=N/C1=C\c1ccc(F)cc1`, the GI50 was > 100 µM (inactive) with 786-0; > 100 µM (inactive) in the experiment with A498; > 100 µM (inactive) with HCT-116; > 100 µM (inactive) with HT-29; > 100 µM (inactive) in the experiment on Hs-578T; 71.3 µM (inactive) in the experiment on IGROV-1. Moreover, the GI50 with LOX IMVI was 38.9 µM (inactive); in the experiment on NCI-H23, > 100 µM (inactive); in the experiment on NCI-H522, 40.5 µM (inactive); with NCI/ADR-RES it was 46.6 µM (inactive); with OVCAR-3 it was 22.2 µM (inactive); with PC-3, > 100 µM (inactive). For the same compound, the GI50 in the experiment on RPMI-8226 was 38.9 µM (inactive); with SF-268, 66.8 µM (inactive); in the experiment on SK-MEL-28, > 100 µM (inactive); with SN12C, > 100 µM (inactive); with UACC-62, > 100 µM (inactive).
As for `CC(C)OP(=O)(OC(C)C)/C(C#N)=C/c1ccco1`, the GI50 in the experiment with 786-0, with A498, with HCT-116, with HT-29, in the experiment with Hs-578T and in the experiment on IGROV-1 was > 100 µM (inactive) each time. In addition, the GI50 in the experiment on LOX IMVI, with NCI-H23, in the experiment with NCI-H522, in the experiment on NCI/ADR-RES, in the experiment on OVCAR-3 and in the experiment with PC-3 was > 100 µM (inactive) in each case. Also, the GI50 with RPMI-8226, in the experiment with SF-268, in the experiment with SF-295, in the experiment with SK-MEL-28, with SN12C and in the experiment on UACC-62 was > 100 µM (inactive) each time.
In the case of `O=[N+]([O-])c1ccc(Cl)c(/C=N/C23CC4CC(CC(C4)C2)C3)c1`, the GI50 was > 7.66 µM (inactive) with 786-0; > 10 µM (inactive) in the experiment on A498; 1.2 µM (inactive) in the experiment on HCT-116; > 10 µM (inactive) with HT-29; > 10 µM (inactive) with Hs-578T; > 10 µM (inactive) in the experiment on IGROV-1. Besides, the GI50 is > 9.12 µM (inactive) with LOX IMVI; > 10 µM (inactive) in the experiment on NCI-H23; > 10 µM (inactive) in the experiment with NCI-H522; > 9.1 µM (inactive) in the experiment on NCI/ADR-RES; > 9.48 µM (inactive) in the experiment with OVCAR-3; > 10 µM (inactive) in the experiment with PC-3. The GI50 with RPMI-8226 was > 6.93 µM (inactive); in the experiment on SF-268 it was > 10 µM (inactive); with SF-295, > 10 µM (inactive); in the experiment with SK-MEL-28 it was > 10 µM (inactive); in the experiment with SN12C it was > 10 µM (inactive); in the experiment on UACC-62, > 10 µM (inactive).
Turning to `COc1ccc(/C=C2\C[C@H]3[C@@H]4CC=C5C[C@@H](OC(C)=O)CC[C@]5(C)[C@H]4CC[C@]3(C)C2=O)cc1OC`, the GI50 with 786-0 was 38.7 µM (inactive); with A498 it was 33 µM (inactive); in the experiment with HCT-116, 38.8 µM (inactive); with HT-29, 41.2 µM (inactive); in the experiment with Hs-578T, 58.6 µM (inactive); with IGROV-1, > 100 µM (inactive). Also, the GI50 in the experiment with LOX IMVI was 42.9 µM (inactive); in the experiment with NCI-H23 it was 70 µM (inactive); in the experiment with NCI-H522, 23.5 µM (inactive); in the experiment on NCI/ADR-RES, 80.9 µM (inactive); in the experiment on OVCAR-3 it was > 100 µM (inactive); in the experiment on PC-3 it was 55.1 µM (inactive). The GI50 with RPMI-8226 was 11.3 µM (inactive); in the experiment on SF-268, 86.7 µM (inactive); with SF-295, 0.47 µM (active); in the experiment with SK-MEL-28, > 100 µM (inactive); in the experiment with SN12C it was 42.3 µM (inactive); in the experiment on UACC-62, > 100 µM (inactive).
`Nc1nc(N)c2c(n1)NC(c1ccccc1)CC(/C=C/c1ccc(Cl)cc1)=N2` (configuration not stated): the GI50 with 786-0 is 3.11 µM (inactive); in the experiment on A498, 15.4 µM (inactive); in the experiment with HCT-116 it was 1.99 µM (inactive); in the experiment with HT-29 it was 3.95 µM (inactive); in the experiment on Hs-578T it was 2.95 µM (inactive); in the experiment on IGROV-1 it was 2.72 µM (inactive). In addition, the GI50 was 3.49 µM (inactive) in the experiment with LOX IMVI; 3.69 µM (inactive) with NCI-H23; 1.76 µM (inactive) in the experiment on NCI-H522; 3.15 µM (inactive) in the experiment with NCI/ADR-RES; 5.62 µM (inactive) with OVCAR-3; 6.59 µM (inactive) in the experiment on PC-3. Moreover, the GI50 was 3.12 µM (inactive) with RPMI-8226; 15.3 µM (inactive) in the experiment with SF-268; 14.1 µM (inactive) with SF-295; 13.5 µM (inactive) with SK-MEL-28; 8.89 µM (inactive) in the experiment with SN12C; 11.6 µM (inactive) with UACC-62.
Regarding `COc1cc(C(=O)OC2CC34CCNC35CC(OC5(OC)C2O)c2cc3c(cc24)OCO3)ccc1O` (configuration not stated), the GI50 with 786-0, with A498, in the experiment with HCT-116, in the experiment with HT-29, in the experiment with Hs-578T and in the experiment on IGROV-1 was > 100 µM (inactive) each time. The GI50 in the experiment with LOX IMVI, in the experiment with NCI-H23, in the experiment on NCI-H522, in the experiment on NCI/ADR-RES, in the experiment with OVCAR-3 and with PC-3 was > 100 µM (inactive) each time. In addition, the GI50 in the experiment with RPMI-8226, with SF-268, with SF-295, with SK-MEL-28, in the experiment with SN12C and in the experiment on UACC-62 was > 100 µM (inactive) in each case.
On to `CC(CO)CCNc1ncnc2c1ncn2CCC(=O)O` (configuration not stated), for which the GI50 with 786-0, in the experiment on A498, in the experiment with HCT-116, in the experiment with HT-29, in the experiment on Hs-578T and in the experiment on IGROV-1 was > 100 µM (inactive) in each case. Moreover, the GI50 in the experiment on LOX IMVI, with NCI-H23, with NCI-H522, in the experiment on NCI/ADR-RES, with OVCAR-3 and in the experiment on PC-3 was > 100 µM (inactive) each time. Also, the GI50 with RPMI-8226, in the experiment with SF-268, in the experiment with SF-295, in the experiment with SK-MEL-28, in the experiment on SN12C and in the experiment with UACC-62 was > 100 µM (inactive) each time.

The record behind these values is ChEMBL document CHEMBL1201862, “PubChem BioAssay data set” (2004).
